Data from patent US11992488B2, “Vasoconstriction compositions and methods of use” (Eye Therapies, LLC, priority 2008, dated 2024).
Read-outs that look alike come from different tables or passages of the source.

How the values were obtained:
[1] = test system: patient with an ocular condition; settings: brimonidine at 0.01% to […] vs tetrahydrozoline 0.05%, oxymetazoline […], naphazoline […]; one patient, baseline redness 4/4
From the text: In an average clinical situation, baseline redness is at 1-1.5/4.

[2] = test system: patient with an ocular condition of moderate hyperemia; assay: FIGS. 5A-C: reversal of pre-induced rebound hyperemia; format: in vivo, human; settings: brimonidine at […], right eye after VISINE Original, FIG. 5C
From the text: FIG. 5A is a baseline visual appearance of two eyes of a patient with an ocular condition.

[3] = test system: patients with chronic red eyes; assay: Example 5: chronic red eyes, patient satisfaction assessment; format: in vivo, human; settings: eld brimonidine at […], drops twice a day for three to five weeks, seven patients
Procedure: The treatment was through drops twice a day for three to five weeks. At the end, patient satisfaction assessment was conducted.

[4] = test system: over-responders wearing contact lenses; settings: 0.008% brimonidine while wearing contact lenses, of 100 Subjects (over-responders)
From the text: Contact lenses provide a reservoir to the surface of the eye allowing drugs to remain longer on the eye and increase their effectiveness.

[5] = test system: over-responders; settings: contact lenses soaked in 0.008% brimonidine, of 100 Subjects (over-responders)
From the text: Contact lenses are often provided as daily wear lenses stored in a blisterpack solution.

[6] = test system: over-responders; settings: of 100 Subjects (over-responders)
[7] = test system: under-responders; settings: of 100 Subjects (under-responders)
[8] = FIG. 2
[9] = 0.037% brimonidine after wash-out

For `Brc1c(N=C2NCCN2)ccc2nccnc12.O=C(O)C(O)C(O)C(=O)O` [brimonidine, 5-bromo-6-(2-imidazolidinylideneamino) quinoxaline L-tartrate], the “scleral whitening brightening effects” value [1] was “significant scleral whitening brightening effects”, the “reversal of induced rebound hyperemia” value [2] was “reversing the VISINE Original® induced rebound hyperemia” and the patient-reported redness [3] was “All patients reported reduced redness”. The “Reduced Redness” value [4] was 95, the Whitening [4] was 95 and the “Reduced Redness” value [5] was 95. The Whitening [5] was 95, the “Reduced Redness” value ([6]; […] brimonidine after wash-out) was 95 and the Whitening ([6]; […] brimonidine after wash-out) was 95. For the same compound, the “Reduced Redness” value ([6]; […] brimonidine) was 85, the Whitening ([6]; […] brimonidine) was 85 and the “Reduced Redness” value [7, 9] was 95. For the same compound, the Whitening [7, 9] was 95, the “Reduced Redness” value ([7]; […] brimonidine) was 35 and the Whitening ([7]; […] brimonidine) was 35. The “concentration at which intraocular pressure reduction is at its maximum” value [8] was “about 0.09%”.
